Measurements published in patent US20040116480A1, “Oxime ether compound and agricultural or horticultural bactericide” (priority 2001, published 2004).

system: kidney bean gray mold fungus (Botrytis cinerea); assay: Test on kidney bean gray mold control, dipped flowers on detached leaves; type: in vivo; conditions: 168 h, 50 ppm active ingredient, kidney bean flowers (Nagauzura) dipped, then spore solution sprayed, 20° C., 7 days, lesion diameter, read-out: control efficacy
Description: The following test examples show the efficacy of the compounds of the present invention as active ingredients of various agents for controlling plant diseases. The control efficacy was determined by visual observation of the infested states of test plants, that is, degrees of legions and growth of colonies on leaves and stalks, when they were examined, in comparison with those of control plants.
Test on Kidney Bean Gray Mold Control
Flowers of kidney bean (variety: Nagauzura) grown in a flat vessel for culturing seedlings were cut, and dipped into a solution of an emulsifiable concentrate prepared for a compound of the present invention, diluted to a concentration of 50 ppm based on the active ingredient. After the dipping, the flowers were dried at room temperature. Then a spore solution of kidney bean gray mold fungus (Botrytis cinerea) was sprayed onto the flowers. The treated flowers were placed on leaves detached from healthy kidney bean plants, placed in a temperature-controlled room at 20° C. with high humidity and repeated lighting of 12-hour intervals, and incubated for 7 days. Diameters of the legions on the leaves were measured and compared with those of the control healthy leaves to determine the control efficacy.

Q: Which pest or weed control at 50 ppm does the source give for `COc1nccc(C)c1CO/N=C/c1cc(C)cc(C)n1` [II-3, 4,6-dimethyl-2-pyridinecarboxyaldehyde O-[(2-methoxy-4-methyl-3-pyridinyl)methyl]oxime] here?
A: ≥ 75%

Q: `COc1ccnc(OC)c1CO/N=C(\C)c1cc(C)cc(C)n1` [II-14, 1-(4,6-dimethyl-2-pyridinyl)ethanone O-[(2,4-dimethoxy-3-pyridinyl)methyl]oxime] was tested. Which pest or weed control at 50 ppm did it give?
A: ≥ 75%

Q: For `COc1ncnc(OC)c1CO/N=C(\C)c1cc(C)cc(C)n1` [II-17, 1-(4,6-dimethyl-2-pyridinyl)ethanone O-[(4,6-dimethoxy-5-pyrimidinyl)methyl]oxime], which pest or weed control at 50 ppm is on record?
A: ≥ 75%

Q: Which pest or weed control at 50 ppm does the source give for `COc1ncnc(OC)c1CO/N=C/c1cc(Cl)cc(C)n1` [II-20, 4-chloro-6-methyl-2-pyridinecarboxyaldehyde O-[(4,6-dimethoxy-5-pyrimidinyl)methyl]oxime] here?
A: ≥ 75%

Q: Which pest or weed control at 50 ppm does the source give for `COc1ccnc(OC)c1CO/N=C/c1cc(C#N)cc(C)n1` [II-27, 4-cyano-6-methyl-2-pyridinecarboxyaldehyde O-[(2-,4-dimethoxy-3-pyridinyl)methyl]oxime] here?
A: ≥ 75%

Q: Which pest or weed control at 50 ppm does the source give for `COc1nccc(C)c1CO/N=C/c1cc(C#N)cc(C)n1` [II-28, 4-cyano-6-methyl-2-pyridinecarboxyaldehyde O-[(2-methoxy-4-methyl-3-pyridinyl)methyl]oxime] here?
A: ≥ 75%

Q: With `COc1ncnc(OC)c1CO/N=C/c1cc(C#N)cc(C)n1` [II-29, 4-cyano-6-methyl-2-pyridinecarboxyaldehyde O-[(4,6-dimethoxy-5-pyrimidinyl)methyl]oxime] as the compound, how does the pest or weed control at 50 ppm read?
A: ≥ 75%

Q: For `COc1ncnc(OC)c1CO/N=C/c1cc(C(F)(F)F)cc(C)n1` [II-36, 6-methyl-4-trifluoromethyl-2-pyridinecarboxyaldehyde O-[(4,6-dimethoxy-5-pyrimidinyl)methyl]oxime], which pest or weed control at 50 ppm is on record?
A: ≥ 75%
